{"source": "patent US20190351069A1", "about": "“Coating of Nanoparticle Surfaces with Cyclopeptides for Improving Delivery of Agents Via the Oral Route” (Ruprecht-Karls-Universität Heidelberg, priority 2016, published 2019)", "experiment": "Stability of cell-penetrating peptides in simulated gastric and intestinal fluid (HPLC/MS)", "format": "in vitro ADME", "method": "Both CPPs (1 mg/mL in water) were diluted 1:1 (v/v) with either simulated gastric fluid or simulated intestinal fluid and incubated at 37° C. under constant shaking as described in the art. After 0, 15, 30 and 60 min, the samples were analyzed by HPLC/MS in order to detect the recovery of intact CPP and were compared in relation with the initial solution. • Cytotoxicity Assays • Cell Cultivation", "note": "Where a SMILES comes first, the peptide text is derived from it."}
{"compound": "N=C(N)NCCC[C@@H]1NC(=O)[C@H](CS)NC(=O)[C@H](CCCNC(=N)N)NC(=O)[C@H](CCCNC(=N)N)NC(=O)[C@H](CCCNC(=N)N)NC(=O)[C@H](CCCNC(=N)N)NC(=O)[C@H](CCCNC(=N)N)NC(=O)[C@H](CCCNC(=N)N)NC(=O)[C@H](CCCNC(=N)N)NC(=O)[C@H](CCCNC(=N)N)NC1=O", "note": "[cyclic CPP] (cyclo(RRRRRRRRRC); ring closure inferred)", "values": [{"measurement": "stability in intestinal fluid", "setting": "over one hour", "result": "only a moderate loss"}, {"measurement": "stability in simulated gastric fluid", "setting": "over one hour", "result": "high stability"}, {"measurement": "remaining at 1 h, 0.5 mg/mL", "setting": "simulated intestinal fluid, after one hour, 37° C., read-out: intact CPP", "result": 47.3, "unit": "%"}]}
